The subject of test [1] is ICAM-1, VCAM-1, and IL-6 gene expression. The test can be described thus: TNF-α induced proinflammatory gene expression (ICAM-1, VCAM-1, IL-6) by Q-RT-PCR in RASM cells. The class given is cell-based, rat. Conditions: for effect of receptor antagonist on the inhibitory effects of (R)-DOI: antagonist 100 nM 30 minutes prior to 1 nM (R)-DOI, then TNF-α. How it is done: (§1) RASM cells and treatment. Rat aortic smooth muscle (RASM) cells were isolated from adult 180 g male Sprague-Dawley rats and provided by the Cell and Molecular Core Facility in the Department of Pharmacology at LSUHSC-NO. Isolated RASM cells were grown in M-199 media containing 10% fetal bovine serum (Gibco), 100 units/mL penicillin, and 100 µg/mL streptomycin, and incubated at 37° C. in 5% CO2. Cells for all assays were used between passages 3 and 5. Prior to treatments, cells were grown in M-199 media with 10% fetal bovine serum (FBS) until 30-50% confluent. For most assays, cells were treated with (R)-DOI, or other drugs as indicated, at specific concentrations for 24 hours, followed by TNF-α (10 ng/ml) and (R)-DOI at the same pretreatment concentrations in fresh M-199 media. After another 24 hours, the cells were scraped, pelleted, and processed for RNA.
(§2) RNA isolation and Quantitative Realtime-PCR. RNA was extracted from cells using Illustra RNAspin Mini kits from GE Healthcare Life Sciences (Piscataway, N.J.) following protocols supplied by the manufacturer. First strand cDNA was generated using the ImProm-II cDNA synthesis kit (Promega) following the manufacturers protocols. Q-RT-PCR was performed using the ProbeLibrary system from Roche (Indianapolis, Ind.) in combination with the HotStart-IT probe qpcr master mix from USB Biological (Cleveland, Ohio) following manufactures protocols.
(§3) Primers were synthesized by IDT (Coralville, Iowa). ProbeLibrary probes from Roche were: U3, U74, U13, U106, U79 for 5-HT2AR, ICAM-1, VCAM-1, IL-6, and cyclophillin B, respectively. Quantitative determination of gene expression levels using a 2-step cycling protocol was performed on a MyIQ-5 Cycler (Bio-Rad, Hercules Calif.). Relative gene expression levels were calculated using the 2^[−ΔΔC(T)] method. Levels of all targets from the test samples were normalized to rat cyclophillin B expression.
(§4) To examine the effects of 5-HT2A receptor activation on TNF-α mediated proinflammatory gene expression, RASM cells were pretreated with (R)-DOI, a selective 5-HT2 receptor agonist, as described above. Dose-response curves were determined for the effects on ICAM-1, VCAM-1, and IL-6 gene expression for twelve different concentrations of (R)-DOI ranging from 0.1 pM to 100 nM, with each experiment repeated in triplicate. In FIGS. 1A-1C, the Y-axis represents a percent of TNF-α for the dose of (R)-DOI indicated on the X-axis.

Test [2] deals with ICAM-1 gene expression. The test can be described thus: TNF-α induced ICAM-1 gene expression in primary rat aortic smooth muscle cells. The class given is cell-based. Conditions: for block of TNF-α induced ICAM1 gene expression at 1 nM: VCAM1 and IL6 identical. How it is done: as §1, §2, §3, §4
The subject of test [3] is ICAM-1 gene expression. Briefly: TNF-α induced ICAM-1 gene expression in rat C6 glioma cells. It is filed as cell-based. The settings on record: 1 nM and 50 nM prior to TNF-α. How it is done:
Experiments were conducted to analyze for the effect of 5-HT2A receptor activation on proinflammatory marker expression in other cell types. Human neuroblastoma cells (SHSY5Y) and rat glioma cells (C6) can be obtained from the American Type Culture Collection (Manassas, Va.), but were provided Purdue University. The cells were grown in DMEM+10% FBS. DMEM was made and provided by the Cell and Molecular Core of the Mentoring in Cardiovascular Biology COBRE center at LSUHSC-NO. FBS was purchased from Invitrogen (Carlsbad, Calif.). Primary rat aortic endothelial cells were prepared fresh and provided by the Cell and Molecular Core of the Mentoring in Cardiovascular Biology COBRE center at LSUHSC-NO. Cells were tested at passages 3-4. Cells were grown in endothelial cell growth medium (Cell Applications, Inc.). Primary rat bronchoaveolar macrophage cells were obtained by lung lavage from rats and used at day 3 or 4 post plating in DMEM+10% FBS.
All treatments with 5-HT2A receptor agonists occurred 1 hour prior to the addition of TNF-alpha (10 ng/ml) or LPS (100 ng or 1 mg) depending on the experiment. All RNA isolations, cDNA synthesis, QPCR gene expression assays examining ICAM1, VCAM1, and IL6, and data analysis were performed as described above in Example 1, except the primers were different for the human cell experiment. […]

In test [4] the test system is nitrite accumulation in C6 glioma cells. Conditions: cocktail of TNF-α, read-out: IC50 for partial block of LPS and cytokine stimulated nitrite accumulation; cited from earlier work.
The test system of test [5] is nuclear translocation of p65. Briefly: Nuclear translocation of NF-κB subunit p65 in RASM cells. The class given is cell-based, rat. Conditions: pretreatment of the 1 hour time point. As for the experimental part:
Nuclear Translocation of p65. RASM cells were grown in M-199 medium+10% FBS until 50% confluent in 8 well chamber slides. Cells were treated with 1 nM (R)-DOI for various times as indicated, and TNF-α (10 ng/ml; tumor necrosis factor alpha) added. Thirty minutes after TNF-α treatment, cells were fixed and processed with rabbit anti p65 primary and Alexafluor 488-conjugated goat secondary antibodies as described in Zerfaoui et al. (2008) (Zerfaoui et al., 2008). Fluorescent signal was visualized on a Leica DMRA2 fluorescent microscope.
Both ICAM-1 and VCAM-1 gene transcription during inflammatory processes is regulated by the transcription factor NF-κB (Collins et al., 1995). During this process, NF-κB must be activated, and then translocated from the cytoplasm to the nucleus, where it promotes gene transcription. To investigate whether 5-HT2A receptor stimulated inhibition of NF-κB activation and translocation might be a possible mechanism for blockade of proinflammatory gene expression changes, a series of immunohistochemical experiments were conducted examining p65 translocation in RASM cells. TNF-α treatment for 30 minutes caused the expected dramatic shift in localization of the p65 subunit of NF-κB from the cytoplasm to the nucleus (FIG. 7A). […]

Test [6] relates to Nitric Oxide Synthetase (NOS) activity. Briefly: NOS activity: nitrite levels in culture medium of RASM cells after TNF-α. The settings on record: 100 nM prior to 1 nM (R)-DOI. The class given is cell-based, rat. As for the experimental part:
Nitric Oxide Synthetase (NOS) Activity. NOS activity was determined by detection of nitrite levels in the cell culture medium following (R)-DOI/TNF-α treatments utilizing the Nitrate Detection kit from Assay Designs (Ann Arbor, Mich.) following the manufacturers protocols. Absorbances were detected at 539 nm on a […] SpectraMax M2 plate reader.
A key participant in inflammatory processes is NOS activity (Guzik et al., 2003). NOS activity can regulate NF-kB activation (Ckless et al., 2007), and cytokine pathway-activated NF-kB can transcriptionally regulate iNOS gene expression (Guo et al., 2007). To examine the effects of 5-HT2A receptor activation on this component of inflammatory mechanisms, primary RASM cells were used to examine the ability of 1 nM (R)-DOI to block TNF-α mediated increases in nitrite levels.
As an indicator of NOS activity, nitrite levels were measured in the cell culture media after treatments and are shown in FIG. 6 as % control. […] Pretreatment with 1 nM (R)-DOI for 24 hours blocked TNF-α mediated increases in nitrite accumulation (DOI+T).

A further test relates to α1-adrenergic receptors. Conditions: cited from earlier work.
The next test concerns the target histamine H1 receptors (Homo sapiens, UniProt P35367). Conditions: cited from earlier work.
For a further test, the target named is 5-HT2A receptors (Homo sapiens, UniProt P28223). The settings on record: cited from earlier work.
Sequence of 5-HT2A receptors (P28223 whole entry): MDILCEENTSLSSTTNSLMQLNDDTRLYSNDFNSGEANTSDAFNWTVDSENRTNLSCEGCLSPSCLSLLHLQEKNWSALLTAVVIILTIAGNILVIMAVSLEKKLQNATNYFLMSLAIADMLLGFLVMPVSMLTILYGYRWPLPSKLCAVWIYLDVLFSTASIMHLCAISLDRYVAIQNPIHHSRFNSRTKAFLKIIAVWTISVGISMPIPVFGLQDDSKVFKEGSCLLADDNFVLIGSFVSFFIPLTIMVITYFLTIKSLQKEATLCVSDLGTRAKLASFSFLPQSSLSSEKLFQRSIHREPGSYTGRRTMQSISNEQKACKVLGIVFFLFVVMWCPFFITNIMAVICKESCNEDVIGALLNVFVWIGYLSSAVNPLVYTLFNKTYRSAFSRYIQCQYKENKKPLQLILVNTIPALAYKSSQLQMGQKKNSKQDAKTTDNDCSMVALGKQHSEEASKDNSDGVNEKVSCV

Entries after “also recorded” stand apart in the source; their conditions may differ.

Sequence of histamine H1 receptors (P35367 whole entry): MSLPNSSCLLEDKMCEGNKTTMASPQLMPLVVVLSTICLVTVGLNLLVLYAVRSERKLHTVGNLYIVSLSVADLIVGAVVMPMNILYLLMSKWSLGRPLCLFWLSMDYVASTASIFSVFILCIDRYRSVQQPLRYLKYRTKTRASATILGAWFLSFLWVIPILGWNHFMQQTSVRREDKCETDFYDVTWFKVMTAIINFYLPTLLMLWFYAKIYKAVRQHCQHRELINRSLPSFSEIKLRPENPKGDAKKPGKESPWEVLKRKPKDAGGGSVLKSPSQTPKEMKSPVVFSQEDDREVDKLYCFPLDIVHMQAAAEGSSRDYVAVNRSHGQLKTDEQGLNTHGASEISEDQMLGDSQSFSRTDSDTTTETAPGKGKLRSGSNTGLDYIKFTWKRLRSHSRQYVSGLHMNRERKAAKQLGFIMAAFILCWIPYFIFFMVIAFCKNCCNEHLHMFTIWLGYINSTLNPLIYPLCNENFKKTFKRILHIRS

With `COc1cc(OC)c(C(=O)CCCCN2CCC3(CC2)NC(=O)NC3=O)cc1NS(=O)(=O)c1ccc(C(F)(F)F)cc1.Cl` [RS102221, reference compound], in [1] (hydrochloride), the “effect of receptor antagonist on the inhibitory effects of (R)-DOI” value (from here on “effect … on the inhibitory effects of (R)-DOI”) is reported as “did not block; also recorded: had no effect”.
As to `CCCCCCCCCCCCCC(=O)O[C@@H]1[C@@H](C)[C@@]2(O)[C@@H](C=C(CO)C[C@]3(O)C(=O)C(C)=C[C@@H]23)[C@@H]2C(C)(C)[C@]12OC(C)=O` [PMA, Phorbol 12-myristate 13-acetate, reference compound], the “effect on TNF-α mediated expression in the absence of (R)-DOI” value in [1] (100 nM prior to TNF-α, ICAM1, VCAM1, IL6) is given as “blocks the effects of TNF-α; also recorded: completely block”.
Consider `CC1CC(C)N1C(=O)C1C=C2c3cccc4[nH]cc(c34)CC2N(C)C1` (stereo not drawn) [LA-SS-Az, (2′S,4′S)-(+)-9,10-Didehydro-6-methylergoline-8β-(trans-2,4-dimethylazetidide)], for which, in the test with ICAM-1 gene expression [2] (1 nM pretreatment), the “induced gene expression blocked at 1 nM” value was “about 50%” and the “block of TNF-α induced ICAM1 gene expression at 1 nM” value is given as “moderately effective”. Also, the “block of TNF-α induced ICAM1 gene expression at 50 nM” value in the test with ICAM-1 gene expression [2] (50 nM pretreatment) is given as “effectively blocked”. In the test on ICAM-1 gene expression [3], the “effect on ICAM-1 gene expression in rat glioma cells” value was “blocked”.
For `COc1cc(CC(C)N)c(OC)cc1I` (racemic) [DOI, 1-(2,5-dimethoxy-4-iodophenyl)-2-aminopropane], in test [4], the IC50 was 8 ± 3 nM.
Consider `Cc1cc(NC(=O)Nc2ccc3c(ccn3C)c2)sn1` [SB204741, N-(1-Methyl-1H-indolyl-5-yl)-N″-(3-methyl-5-isothiazolyl)urea, reference compound], for which, in test [1], the “effect … on the inhibitory effects of (R)-DOI” value is “did not block; also recorded: had no effect”.
As to `COc1cccc([C@H](O)C2CCN(CCc3ccc(F)cc3)CC2)c1OC` [M100907, R(+)-a-(2,3-dimeth-oxyphenyl)-1-[2-(4-fluorophenylethyl)]-4-pipeddine-methanol, reference compound], the figures for the “effect … on the inhibitory effects of (R)-DOI” value in [1] and in test [1] (listed as MDL100907) were “blocked the effects of (R)-DOI” and “completely blocked”, respectively.
Take `COc1ccc2c(c[n+](C)c3c4cc5c(cc4ccc23)OCO5)c1OC.[Cl-]` [chelerythrine, 1,2-Dimethoxy-12-methyl[1,3]benzodioxolo[5,6-c]phenanth ridinium chloride, reference compound]: the “effect of kinase inhibitor on (R)-DOI inhibition of TNF-α induced ICAM-1 expression” value in the test with ICAM-1 gene expression [2] (inhibitor 100 nM 30 minutes prior to 1 nM (R)-DOI, then TNF-α) is on record as “blocked the effects of TNF-α-induced gene expression; also recorded: completely inhibited”. The “effect of PKC inhibitor on (R)-DOI induced inhibition of p65 translocation” value in [5] is recorded as “blocked”. Also, in test [6], the “effect of PKC inhibitor on (R)-DOI block of nitrite accumulation” value is recorded as “completely inhibited”.
For `CCN(CC)C(=O)[C@@H]1C=C2c3cccc4[nH]cc(c34)C[C@H]2N(C)C1` [LSD, Lysergic acid diethylamide, reference compound], the “block of TNF-α induced ICAM1 gene expression at 1 nM” value in the test on ICAM-1 gene expression [2] (1 nM pretreatment) was “weak to moderate effects”. In addition, in the test on ICAM-1 gene expression [2] (50 nM pretreatment), the “TNF-α effect blocked at 50 nM” value is given as “about 85%”.
With `O=C(c1ccc(F)cc1)C1CCN(CCn2c(=O)[nH]c3ccccc3c2=O)CC1` [ketanserin], the “affinity for α1-adrenergic receptors” value in the test with α1-adrenergic receptors is recorded as “high affinity”. Besides, at histamine H1 receptors, the “potency at blocking histamine H1 receptors” value was “equipotent”. The “selectivity for 5-HT2A receptors over 5-HT2C receptors” value at 5-HT2A receptors is roughly 20 fold.

(Values after US9642819B2, “Low dosage serotonin 5-HT2A receptor agonist to suppress inflammation” (BOARD OF SUPERVISORS OF LOUISIANA STATE UNIVERSITY AND …, priority 2008, dated 2017).)
